Test: physchem
Settings: octan-1-ol/water, pH 7.4, LogD7.4

logD | SMILES
2.22 | CC(C)C(NC(=O)Cn1c(-c2ccc(F)cc2)ncc(NC(=O)OCc2ccncc2)c1=O)C(=O)C(F)(F)F (stereo not given)
2.26 | COc1cc(OC)cc(-c2ccc(NC(=O)OCc3ccccc3)c(=O)n2CC(=O)NC(C(=O)C(F)(F)F)C(C)C)c1 (stereo not given)
2.38 | Cc1cc(COC(=O)Nc2ccc(-c3ccccc3)n(CC(=O)NC(C(=O)C(F)(F)F)C(C)C)c2=O)cc(C)n1 (stereo not given)
2.29 | Cc1cc2n[nH]c(=O)n2c2cc(-c3ccncc3)ccc12
2.22 | Cc1ccc2[nH]c(C(=O)N3CCN(C)CC3)cc2c1
2.17 | NC(=O)c1cnc(N[C@H]2CCCNC2)c2cc(-c3ccc(F)c(F)c3)sc12
2.2 | CNC(=O)C1(N2CCCNC2=O)CCN(CC[C@H](CN(C)C(=O)c2c(OC)c(C#N)cc3ccccc23)c2ccc(Cl)c(Cl)c2)CC1
2.26 | CC1CCN(C(=O)c2scc3c2OCCO3)CC1
2.2 | Cc1nc2nc(NC(=O)c3ccc(F)cc3)nn2c(O)c1Cc1ccccc1
2.31 | O=C(COc1ccccc1O)NC1CCCC1
2.4 | Nc1nc(N)nc(-c2cccc(C(F)(F)F)c2)n1
2.35 | Fc1cc2[nH]cnc2cc1Cl
2.18 | Cc1ccccc1C(=O)N1CCN(c2ccccn2)CC1
2.27 | COc1cc(-c2nnc(S)n2-c2cccc(C(F)(F)F)c2)cc(OC)c1OC
2.3 | Cc1cc(Nc2ccccc2)n(CCC#N)n1
2.33 | c1cc2c(cc1-c1cnc3n1CCC3)OCCO2
2.23 | Cc1ccc2c(N)c(C#N)sc2n1
2.36 | COc1cc(CNc2nc3ccccc3[nH]2)cc(OC)c1OC
2.3 | CC1(C)C(=O)Nc2ccccc21
2.3 | CCCc1c(OCc2ccc(C(=O)O)c(Br)c2)ccc(C(C)=O)c1O
2.3 | O=C1CCOc2nc(COc3ccccc3)ccc21
2.2 | CC[C@H](NC(=O)c1c([S+](C)[O-])c(-c2ccccc2)nc2ccccc12)c1cccnc1 (stereo not given in full)
2.36 | COc1cc2nnc(C(N)=O)c(Nc3ccc(C)cc3F)c2cc1N1CCN(C)CC1
2.35 | COc1cc2nnc(C(N)=O)c(Nc3cccc(Cl)c3F)c2cc1N1CCN(C)CC1
2.2 | Cc1ccc(CO)cc1N(C)c1ccnc(Nc2cc(C(=O)N3CCOCC3)cc(N3CCOCC3)c2)n1
2.23 | COc1cc(F)ccc1-c1cncc(CNC2CCC2)n1
2.29 | COc1cc(F)ccc1-c1cncc(CNC2CCCC2)c1

logD | SMILES
2.29 | COc1cc(F)ccc1-c1cccc(CNC2CCCC2)c1
2.3 | O=c1[nH]c2c(O)ccc([C@@H](O)CNCCCSCCOCCc3ccccc3)c2s1
2.28 | O=c1[nH]c2c(O)ccc([C@@H](O)CNCCCOCCOCCc3cccc4ccccc34)c2s1
2.3 | COc1cc(N2CCN(C(C)=O)CC2)ccc1Nc1ncc(Cl)c(-c2cnc3cc(C#N)ccn23)n1
2.32 | CCC(c1nc2ccsc2c(=O)n1Cc1ccc(Cl)cc1)N(CCCN)C(=O)c1ccc(C)cc1 (stereo not given)
2.21 | NC(=O)Nc1cc(-c2cccc(O)c2)sc1C(N)=O
2.36 | NC(=O)c1ccc(=O)n(Cc2ccc(Cl)cc2Cl)c1
2.38 | COc1ccc(CN2C(=O)CCC2(C)C(=O)NC2CCCCC2)c(OC)c1 (stereo not given)
2.3 | O=c1[nH]c2c(O)ccc([C@@H](O)CNCCc3ccc(CNCCc4c(Cl)cccc4Cl)cc3)c2s1
2.3 | Cc1ccccc1Cn1ccn2c(=O)cc(N3CCOCC3)nc12
2.3 | Nc1cc2n[nH]c(=O)n2c2cc(-c3ccc[nH]3)ccc12
2.19 | O=c1[nH]nc2cc(CO)c3ccc(-c4ccc[nH]4)cc3n12
2.3 | N#Cc1cnn2c(N)cc(-c3cccs3)nc12
2.32 | COc1cc2c(Nc3ncc(NC(=O)c4ccccc4)cn3)ncnc2cc1OCCCN1CCOCC1
2.18 | NC(=O)Nc1sc(-c2cc(F)cc(F)c2)cc1C(=O)N[C@H]1CCCNC1
2.27 | CCCSc1ncccc1C(=O)N[C@@H]1[C@@H]2CC3C[C@H]1C[C@@](O)(C3)C2
2.33 | CCCNc1nc(N2CCC[C@@H](CC(=O)O)C2)ccc1C(=O)NC1CCCCC1
2.28 | CCCN(C)c1nc(N2CCC[C@@H](CC(=O)O)C2)ccc1C(=O)NC1CCCCC1
2.24 | O=C(c1ccc(-c2nc(=O)o[nH]2)cc1)N1CCC(N2CCC(Oc3ccc(Cl)c(Cl)c3)CC2)CC1
2.26 | COCCNS(=O)(=O)c1ccc(-c2cnc(N)c(C(=O)Nc3cccnc3)n2)cc1
2.34 | CS(=O)(=O)c1ccccc1C(=O)NC[C@@H](O)CN1CCC(Oc2ccc(Cl)c(Cl)c2)CC1
2.34 | CN(C)c1ccnc2sc3c(=O)n(-c4ccccc4)cnc3c12
2.2 | NC(=O)C(NC(=O)C1(N)CCN(c2ncnc3[nH]ccc23)CC1)c1ccc(Cl)cc1 (stereo not given)
2.2 | NC1(C(=O)NC(CS(N)(=O)=O)c2ccc(Cl)cc2)CCN(c2ncnc3[nH]ccc23)CC1 (stereo not given)
2.2 | CS(=O)(=O)NCCC(NC(=O)C1(N)CCN(c2ncnc3[nH]ccc23)CC1)c1ccc(Cl)cc1 (stereo not given)
2.17 | CC(NC(=O)C1(N)CCN(c2ncnc3[nH]ccc23)CC1)c1ccccc1 (stereo not given)
2.37 | OCCN1CC=CC[C@H](c2ccc(Cl)c(Cl)c2)C1

logD | SMILES
2.27 | Cc1cn([C@H]2CCCN(S(=O)(=O)c3ccc(O)c(Oc4cccc(C(F)(F)F)c4)c3)C2)c(=O)[nH]c1=O
2.22 | COc1cc2ncnc(Nc3ccncc3)c2cc1OC
2.39 | Cc1ccn2c(-c3ccnc(N)n3)c(C)nc2c1
2.39 | O=C(NCCN1CCCC1)c1ccc(Nc2ncc3cc(-c4ccncc4)ccc3n2)cc1
2.3 | Fc1ccc2cn[nH]c2c1
2.33 | Clc1cccc2cn[nH]c12
2.26 | COc1cc(OC2CCN(C)CC2)c2c(Nc3cccc4c3OCCO4)ncnc2c1
2.3 | O=C1c2ccc(O)cc2C(=O)N1c1ccccc1
2.26 | CC(C)C(NC(=O)Cn1c(-c2ccccc2)ccc(NS(=O)(=O)c2ccccc2)c1=O)C(=O)C(F)(F)F (stereo not given)
2.37 | CCNc1ccc(-c2ccccc2)n(CC(=O)NC(C(=O)C(F)(F)F)C(C)C)c1=O (stereo not given)
2.31 | O=C(c1ccc(CCC(COc2ccc(-c3cccc([N+](=O)[O-])c3)cc2)N2C(=O)CCCC2=O)cc1)N1CCCC1 (stereo not given)
2.3 | NC(=O)c1cc(O)cc2nc(-c3ccc(O)cc3)oc12
2.2 | O=C(Nc1ccccn1)c1ccccc1
2.23 | Nc1ccc2c(c1)C(=O)C(=O)c1ccccc1-2
2.3 | CC(C)[C@@H](CO)NS(=O)(=O)c1ccc(Cl)s1
2.36 | Cc1ncc(-c2nc(Nc3ccc(C(=O)N4CC[C@@H](N(C)C)C4)cc3)ncc2F)n1C(C)C
2.26 | Cc1ncc(-c2nc(Nc3ccc(C(=O)NCCN(C)C)c(F)c3)ncc2F)n1C(C)C
2.39 | Cc1ncc(-c2ccnc(Nc3ccc(C(N)=O)cc3)n2)n1C(C)C
2.36 | O=C(c1cccc(Cc2n[nH]c(=O)c3ccccc23)c1)N1CCN(c2ccccn2)CC1
2.28 | CS(=O)(=O)Nc1cc(Nc2nccc(Nc3c(Cl)ccc4c3OCO4)n2)cc(C(N)=O)c1
2.2 | Nc1cc(-c2ccccc2)nc2ccccc12
2.2 | Cn1cc(-c2ccc(O)cc2)c(=O)c2c(O)cc(O)cc21
2.39 | Nc1ccc2c(c1)-c1ccccc1C(=O)C2=O
2.27 | c1ccc(-c2cc(NCCCCCCCCNc3cc(-c4ccccc4)nc4ccccc34)c3ccccc3n2)cc1
2.32 | CC(C)(C(N)=O)C(=O)NCCCNc1nc(Nc2cccc(NC(=O)N3CCCC3)c2)ncc1Br

SMILES | logD
NC(=O)c1sc(-c2ccsc2)cc1N | 2.23

From ChEMBL document CHEMBL3301361, “Experimental in vitro DMPK and physicochemical data on a set of publicly disclosed compounds”
